Values quoted from earlier work as cited in patent US20210213050A1, “Compositions and Methods for the Removal of Extraneous Calcium Hydroxyapatite” (HENRY FORD HEALTH SYSTEM, priority 2018, published 2021).
Each block holds one compound with its values, some of them ahead of it.

Legend:
[1] = fold higher than CaHA; proposed mechanism

Structure (SMILES): O=S([O-])([O-])=S.[Na+].[Na+] [sodium thiosulfate]
- ability to dissolve previously injected CaHA microspheres (porcine skin samples injected subdermally with CaHA, intralesional sodium thiosulfate 0.2 mL, 12.5 g/50 mL, alone or with topical sodium metabisulfite): able to dissolve previously injected CaHA microspheres
- visible CaHA microspheres on histologic analysis of the treated area (porcine skin, intralesional sodium thiosulfate, 24 hours later): no visible CaHA microspheres were observed

- CaHA remaining after topical treatment alone (porcine skin, topical SMB alone, histology after approximately 24 hours): approximately 50%
Structure (SMILES): O=S([O-])S(=O)(=O)[O-].[Na+].[Na+] [SMB, sodium metabisulfite]

Structure (SMILES): O=S([O-])([O-])=S.[Ca+2] [calcium thiosulfate salt, calcium thiosulfate]
- solubility of calcium thiosulfate salt relative to CaHA [1]: 250- to 100,000 fold
